# Assay results as given in publication PMC4279406, “Simultaneous targeting of PI3Kδ and a PI3Kδ-dependent MEK1/2-Erk1/2 pathway for therapy in pediatric B-cell acute lymphoblastic leukemia” (Oncotarget, 2014).
# Columns and labels:
# primary B-ALL cells = assay: Viability of primary mononuclear cells from pediatric patients (CCK-8); type: cell-based, human; conditions: 72 h, 8/13 specimens
# Excerpt: (§1) Figure 3 PI3Kδ inhibition led to blockade of B cell leukemia cells proliferation via induction of cell cycle arrest and apoptosis Raji cells treated with X-370 for indicated times and at serial diluted concentrations were subjected to Annexin V-FITC/PI staining (A) and PI staining (B) and FACS analysis to show cell apoptosis and cell cycle distribution respectively. (C) X-370 inhibited proliferation of human leukemia primary cells. Freshly isolated human primary mononuclear cells from bone marrow samples of patients were treated with X-370 for 72 h and cell viability was assayed using CCK-8 assay. IC50s of each sample were plotted where 10 μM was assigned to specimens with IC50 >10 μM. Each symbol represents an individual patient sample. […]
# (§2) Cell viability was assessed using Cell Counting Kit (CCK-8, Dojindo, Japan) following the manufacturer's protocol and OD values were measured with a Spectramax M5 plate reader (Molecular Devices, Sunnyvale, CA)[45].
# (§3) Bone marrow was obtained from patients after provision of informed consent using guidelines approved by the Committee on the Use of Human Subjects in Research at Shanghai Jiaotong University or Shanghai Fudan University under a protocol approved by the Review Board. […] Cell viability and phosphorylated Akt and Erk1/2 were then detected.
# [1] = tested on: primary non B-ALL leukemia cells; assay: as above; type: cell-based, human; conditions: 72 h, 1/7 specimens
# Excerpt: as §1, §2, §3
smiles,measurement,setting,value
O=C(N1CCCC1)N1CCC(n2cnc3c(-n4c(C(F)F)nc5ccccc54)nc(N4CCOCC4)nc32)CC1 [X-370],B-ALL specimens sensitive with IC50<1 μM,primary B-ALL cells,61%
same,non B-ALL specimens sensitive with IC50<1 μM,[1],14%
